# According to ChEMBL document CHEMBL2073811, “Uptake of the mycotoxin ochratoxin A in liver cells occurs via the cloned organic anion transporting polypeptide” (J Pharmacol Exp Ther, 1996):
# Tests used:
# [1] = molecular target: T1, Solute carrier organic anion transporter family member 1A1 (Rattus norvegicus, UniProt P46720); test: TP_TRANSPORTER: inhibition of Ochratoxin A uptake (OTA: 1 uM, CRC-220: 100uM) in Xenopus laevis oocytes; assay type: functional, cell-based; details: oocyte
# T1 sequence (P46720 whole entry): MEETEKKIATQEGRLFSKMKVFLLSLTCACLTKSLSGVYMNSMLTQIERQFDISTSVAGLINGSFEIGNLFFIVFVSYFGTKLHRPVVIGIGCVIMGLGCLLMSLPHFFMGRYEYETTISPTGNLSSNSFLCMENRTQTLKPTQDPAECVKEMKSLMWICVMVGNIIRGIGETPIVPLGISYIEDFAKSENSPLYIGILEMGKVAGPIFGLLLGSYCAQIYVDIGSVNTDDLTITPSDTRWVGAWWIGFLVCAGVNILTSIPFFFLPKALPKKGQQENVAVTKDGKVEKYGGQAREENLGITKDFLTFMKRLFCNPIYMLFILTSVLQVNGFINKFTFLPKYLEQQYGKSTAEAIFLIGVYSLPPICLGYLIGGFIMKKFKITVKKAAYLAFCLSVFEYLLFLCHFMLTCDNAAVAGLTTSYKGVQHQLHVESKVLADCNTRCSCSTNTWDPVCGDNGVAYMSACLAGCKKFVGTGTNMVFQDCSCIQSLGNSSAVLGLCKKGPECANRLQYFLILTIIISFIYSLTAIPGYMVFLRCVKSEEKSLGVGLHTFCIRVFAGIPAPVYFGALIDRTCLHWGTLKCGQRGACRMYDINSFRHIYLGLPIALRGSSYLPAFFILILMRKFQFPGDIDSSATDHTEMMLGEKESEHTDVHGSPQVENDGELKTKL
# [2] = molecular target: T1, Solute carrier organic anion transporter family member 1A1; test: TP_TRANSPORTER: uptake in Xenopus laevis oocytes; assay type: functional, cell-based, Oocyte; details: Xenopus laevis oocytes expressing the transporter
# [3] = molecular target: T1, Solute carrier organic anion transporter family member 1A1; test: TP_TRANSPORTER: inhibition of Ochratoxin A uptake (OTA: 1 uM, E1S: 100uM) in Xenopus laevis oocytes; assay type: functional, cell-based; details: oocyte
# [4] = molecular target: T1, Solute carrier organic anion transporter family member 1A1; test: TP_TRANSPORTER: inhibition of Ochratoxin A uptake (OTA: 1 uM, GC: 100uM) in Xenopus laevis oocytes; assay type: functional, cell-based; details: oocyte
# [5] = molecular target: T1, Solute carrier organic anion transporter family member 1A1; test: TP_TRANSPORTER: inhibition of Ochratoxin A uptake (OTA: 1 uM, BSP: 100uM) in Xenopus laevis oocytes; assay type: functional, cell-based; details: oocyte
smiles,measurement,setting,value
COc1cc(C)c(S(=O)(=O)N[C@@H](CC(=O)O)C(=O)N[C@H](Cc2ccc(C(=N)N)cc2)C(=O)N2CCCCC2)c(C)c1C,Activity,[1],inhibitor [+]
C[C@@H]1Cc2c(Cl)cc(C(=O)N[C@@H](Cc3ccccc3)C(=O)O)c(O)c2C(=O)O1 [3R14S-OCHRATOXIN A],Km,[2],16.6 µM
C[C@]12CC[C@@H]3c4ccc(OS(=O)(=O)O)cc4CC[C@H]3[C@@H]1CCC2=O [ESTRONE SULFURIC ACID],Activity,[3],inhibitor [+]
C[C@H](CCC(=O)NCC(=O)O)[C@H]1CC[C@H]2[C@@H]3[C@H](O)C[C@@H]4C[C@H](O)CC[C@]4(C)[C@H]3C[C@H](O)[C@]12C [GLYCOCHOLIC ACID],Activity,[4],inhibitor [+]
O=C1OC(c2ccc(O)c(S(=O)(=O)[O-])c2)(c2ccc(O)c(S(=O)(=O)[O-])c2)c2c(Br)c(Br)c(Br)c(Br)c21.[Na+].[Na+] [SULFOBROMOPHTHALEIN SODIUM],Activity,[5],inhibitor [+]
